The target in the assay is T1, IKKα (Homo sapiens, UniProt O15111).
T1 construct: gene CHUK; recombinant IKKα (Invitrogen), described as a monomer
T1 sequence (O15111 1-745): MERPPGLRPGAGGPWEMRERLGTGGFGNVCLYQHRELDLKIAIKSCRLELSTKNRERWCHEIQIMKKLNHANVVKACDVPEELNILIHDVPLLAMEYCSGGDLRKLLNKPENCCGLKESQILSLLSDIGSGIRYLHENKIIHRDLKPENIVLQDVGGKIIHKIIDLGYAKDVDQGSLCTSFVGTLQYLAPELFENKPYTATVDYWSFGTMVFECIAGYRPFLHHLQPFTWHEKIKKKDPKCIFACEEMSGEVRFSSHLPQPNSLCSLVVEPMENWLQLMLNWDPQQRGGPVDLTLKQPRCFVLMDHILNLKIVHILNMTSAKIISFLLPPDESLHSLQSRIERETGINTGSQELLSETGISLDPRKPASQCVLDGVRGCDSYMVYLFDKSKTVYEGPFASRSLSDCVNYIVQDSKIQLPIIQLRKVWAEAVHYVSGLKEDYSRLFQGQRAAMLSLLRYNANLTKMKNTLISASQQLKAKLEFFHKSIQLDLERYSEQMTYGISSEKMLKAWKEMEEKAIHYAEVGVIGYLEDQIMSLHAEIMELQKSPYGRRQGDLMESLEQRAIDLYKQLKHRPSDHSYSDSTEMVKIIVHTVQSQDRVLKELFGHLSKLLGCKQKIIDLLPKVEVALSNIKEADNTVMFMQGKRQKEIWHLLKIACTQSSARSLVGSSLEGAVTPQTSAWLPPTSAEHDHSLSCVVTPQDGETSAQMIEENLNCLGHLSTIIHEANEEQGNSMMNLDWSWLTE
Description: in vitro kinase assay with recombinant IKKα and IKKtide, UPLC-MS readout. It is filed as biochemical.

SMILES strings stand for the structures.

A word on the IC50: it is the concentration that gives 50% inhibition.

With `CC(=O)N[C@@H](Cc1ccccc1)C(=O)N[C@@H]1[C@@H](O)[C@H](O)[C@@H](CO)O[C@H]1O` [NAPA, 2-(N-Acetyl)-L-phenylalanylamido-2-deoxy-β -D-glucose], the IC50 is 500 ± 86 µM.

These data come from PMC7915277, “Biochemical and Computational Studies of the Interaction between a Glucosamine Derivative, NAPA, and the IKKα Kinase” (International Journal of Molecular Sciences, 2021).
